The values below come from patent US9364468B2, “Pharmaceutical composition for preventing or treating tuberculosis” (INDUSTRY-ACADEMIC COOPERATION FOUNDATION, YONSEI UNIVERSITY, priority 2012, dated 2016).

Experiment [1] has as its system Vero cell line (ATCC CCL-81). The experiment can be described thus: Cytotoxicity test, CellTiter 96 Non-Radioactive Cell Proliferation Assay, Vero cell line. The class given is cell-based. As to conditions: Chlorocebus sabaeus, 72 h, 3 days.
The subject of experiment [2] is carbon monoxide dehydrogenase (CO-DH). The experiment is described as follows: CO-DH activity assay (INT reduction in the presence of CO, enzyme extract). The class given is biochemical. To be noted: 12.5 μM compound; relative to control group set to 100%. On the procedure: In order to obtain an enzyme extract to be used for the measurement of CO-DH activity, the bacteria cultured according to respective experiment conditions were collected by centrifugation at 18,000×g for 10 minutes at 4° C. (Eppendorf centrifuge-5403, Hamburg, Germany), washed twice with a 50 mM Tris-HCl (pH 7.5) buffer solution, and re-suspended in […] of a 50 mM Tris-HCl (pH 7.5) buffer solution. The suspended bacteria were homogenized at 0° C. by repeating 20 times of ultrasonication using an ultrasonic processor (Sonics & Materials Inc., Danbury, Conn.) wherein the ultrasonication was conducted such that ultrasonic wave at 20% amplitude was applied for 3 seconds and paused for 10 seconds. The homogenized culture solution was collected by centrifugation at 18,000×g for 30 minutes at 4° C. (Eppendorf centrifuge-5403), and a supernatant was used as an enzyme extract.
Proteins were quantified using bovine serum albumin (BSA) as a standard protein according to the method of Bradford (1976).
CO-DH activity was determined by measuring the reduction rate of 2-(4-indophenyl)-3-(4-nitrophenyl)-2H-tetrazolium chloride (INT, Sigma, ε496=17.981 mM^−1 cm^−1) in the presence of CO. Here, 1-methoxyphenazine methosulfate (MPMS, Sigma) was used as an electron transfer mediator between CO-DH and INT. A mixture solution of 19.2 ml of 50 mM Tris-HCl (pH 7.5), 250 μl of INT (9.8 mM), 50 μl of MPMS (8.9 mM), and 500 μl of Triton X-100 (25%, v/v) was saturated with CO gas. 800 μl of the resultant solution was added into a plastic cuvette, and then each compound was added thereto to a final concentration of 12.5 μM. Last, 800 μl of the enzyme extract was added thereto, followed by reaction at 30° C. for 200 seconds. Here, the absorbance change is due to red formazan generated resulting from INT reduction, and was measured at 496 nm by using a spectrophotometer (U-2000, Hitachi) equipped with a temperature adjuster. Enzyme specific activity was expressed as nmoles of reduced INT per mg of protein per minute (nmol/mg protein/min). The enzyme specific activity of each compound treatment group was expressed as a percentage of the control group of which enzyme specific activity was set to 100%, and the results were summarized in Table 1.

The subject of experiment [3] is marrow cell-derived macrophages. The experiment is described as follows: Cytotoxicity test, CellTiter 96 Non-Radioactive Cell Proliferation Assay, marrow cell-derived macrophages. To be noted: Mus musculus, Macrophage. The format is cell-based. The method, then:
For preparation of mouse macrophages, the mouse femur was severed and then both ends thereof were cut. A 1-ml syringe was filled with the RPMI-1640 medium (Gibco), which was then used to isolate and take marrow cells in the femur. Blood cells were removed from the taken marrow cells by a low-osmotic buffer, and then the number of marrow cells was measured using a microscope. After appropriate dilution with the RPMI-1640 medium, the marrow cells were seeded in a 96-well microplate at 100,000 cells per well. After culturing in a CO2 incubator at 37° C. for 2 hours, cells other than the marrow cells were removed through exchange with a new RPMI-1640 medium. The medium was substituted with a culture supernatant of L929 cells, followed by culturing for 3 days. Again, the medium was substituted with a new culture supernatant of L929 cells, followed by culturing for 3 days.
Cytotoxicity was measured according to the method of Promega Inc., and 15 μl of a staining solution was applied to each well of the 96-well plate. The cells were incubated in a CO2 incubator at 37° C. for 4 hours, and then 100 μl of a quiescent solution was applied thereto. The absorbance of each well was measured at 570 nm using an absorbance measurement equipment from Molecular Devices. The absorbance values of wells not containing the compounds of Chemical Formulas 1 to 4 were compared with those of wells containing the compounds of Chemical Formulas 1 to 4 to determine the inhibition (%). The correlation between inhibition and concentration was calculated using the Prism software from Graphpad to determine IC50 (concentration at 50% inhibition) value. The marrow cell-derived macrophages were prepared by the method as described in Example 3 above.

Experiment [4] deals with Mycobacterium sp. strain JC1 wild type. The experiment can be described thus: CFU inhibition of JC1 wild type by compound alone. The format is cell-based. As to conditions: read-out: Compound analog + JC 1 wild type (percentage (%) of CFU inhibition).

As for `COC(=O)c1ccccc1NC(=O)CSc1ccc(Br)cc1` [Compound 2], in experiment [1], the IC50 (usually the point on the concentration scale where inhibition reaches its midpoint) was 36.4 µM. For the same compound, in experiment [2], the “Inhibition of CO-DH activity” value was 18%. Moreover, the half-maximal inhibitory concentration (IC50) in experiment [3] was above 100 µM. In experiment [4], the inhibition (usually the share of the control response that was lost under treatment) at 12.5 µM was determined as 3%, the inhibition at 25 µM came out at 9% and the inhibition at 50 µM came to 12%.

Turning to `COC(=O)c1ccc(Cl)cc1NC(=O)CCSc1ccccn1` [Compound 4], the half-maximal inhibitory concentration (IC50) in experiment [1] is 158 µM. Further, the “Inhibition of CO-DH activity” value in experiment [2] is given as 7%. Besides, in experiment [3], the IC50 is above 100 µM. Further, in experiment [4], the inhibition at 12.5 µM is 2%, the inhibition at 25 µM is 4% and the inhibition at 50 µM stood at 16%.

For `COC(=O)c1ccsc1NC(=O)CSc1ccncc1` [Compound 1], the IC50 in experiment [1] stood at 75.2 µM. Also, the “Inhibition of CO-DH activity” value in experiment [2] came to 48%. In addition, the IC50 in experiment [3] was above 100 µM. Besides, in experiment [4], the inhibition at 12.5 µM amounted to 0%, the inhibition at 25 µM was 2% and the inhibition at 50 µM was 6%.

For the compound `COC(=O)c1ccccc1NC(=O)CSc1ccccn1` [Compound 3], the IC50 in experiment [1] was 109 µM. In addition, the “Inhibition of CO-DH activity” value in experiment [2] is given as 15%. In experiment [3], the IC50 is above 100 µM. In addition, in experiment [4], the inhibition at 12.5 µM came out at 4%, the inhibition at 25 µM was 2% and the inhibition at 50 µM was 8%.
